Like-named read-outs stand apart in the source and are kept apart here.
Experiments:
E. coli GC 4559 = experiment: MIC, broth microdilution; conditions: Escherichia coli
E. faecalis GC 2267 = experiment: MIC, broth microdilution; conditions: Enterococcus faecalis
Description: (§1) Antimicrobial susceptibility testing. The in vitro activities of the antibiotics are determined by the broth microdilution method as recommended by the National Committee for Clinical Laboratory Standards (NCCLS) (1). Mueller-Hinton II broth (MHBII)(BBL Cockeysville, Md.) is the medium employed in the testing procedures. Microtiter plates containing serial dilutions of each antimicrobial agent are inoculated with each organism to yield the appropriate density (10^5 CFU/ml) in a 100 μl final volume. The plates are incubated for 18-22 hours at 35° C. in ambient air.
Representative compounds were first incubated in mouse serum for an hour prior to the in vitro testing against a panel of selected gram-positive and gram-negative bacteria strains. All compounds were also pre-incubated in water for an hour prior to testing as control.

S. aureus GC 1131 = experiment: MIC, broth microdilution; conditions: Staphylococcus aureus
E. coli GC 2272 = experiment: MIC, broth microdilution; conditions: Escherichia coli
Staph. aureus Smith = experiment: In vivo activity (oral, iv; ED50) against Staph. aureus Smith in mice
Description: Representative examples of compounds of Formula I were tested for the oral efficacy using S. aureus Smith in mice.

P. aeruginosa GC 2214 = experiment: MIC, broth microdilution; conditions: Pseudomonas aeruginosa
S. agalactiae GC 4564 = experiment: MIC, broth microdilution; conditions: Streptococcus agalactiae
Description: as §1
Representative compounds were first incubated in mouse serum for an hour prior to the in vitro testing against a panel of selected gram-positive and gram-negative bacteria strains. All compounds were also pre-incubated in water for an hour prior to testing as control. Representative compounds of Formula I were incubated in human serum prior to MIC determination.

E. coli GC 3226 = experiment: MIC, broth microdilution; conditions: Escherichia coli
S. aureus GC 6335 = experiment: MIC, broth microdilution; conditions: Staphylococcus aureus
E. coli GC 2232 = experiment: MIC, broth microdilution; conditions: Escherichia coli
E. coli GC 2234 = experiment: MIC, broth microdilution; conditions: Escherichia coli
E. coli GC 2203 = experiment: MIC, broth microdilution; conditions: Escherichia coli
S. pneumoniae+ GC 4465 = experiment: MIC, broth microdilution; conditions: Streptococcus pneumoniae
E. faecalis GC 2265 = experiment: MIC, broth microdilution; conditions: Enterococcus faecalis
E. coli GC 2236 = experiment: MIC, broth microdilution; conditions: Escherichia coli
E. coli GC 2271 = experiment: MIC, broth microdilution; conditions: Escherichia coli
S. pneumoniae* GC 4465 = experiment: MIC, broth microdilution; conditions: Streptococcus pneumoniae
S. pyogenes GC 4563 = experiment: MIC, broth microdilution; conditions: Streptococcus pyogenes
E. faecalis GC 4555 = experiment: MIC, broth microdilution; conditions: Enterococcus faecalis
S. epidermidis GC 4935 = experiment: MIC, broth microdilution; conditions: Staphylococcus epidermidis
[1] = read-out: MINIMAL INHIBITORY CONCENTRATION MIC, pre-incubated in Mouse Serum
[2] = read-out: MINIMAL INHIBITORY CONCENTRATION MIC, pre-incubated in Water

CCCCN(CC(=O)Nc1cc(N(C)C)c2c(c1O)C(=O)C1=C(O)[C@]3(O)C(=O)C(C(N)=O)=C(O)[C@@H](N(C)C)[C@@H]3C[C@@H]1C2)C(=O)OCOC(=O)c1cc(C)cc(C)c1 [Example 22, ({[(2-{[(5aR,6aS,7S,10aS)-9-(aminocarbonyl)-4,7-bis(dimethylamino)-1,8,10a,11-tetrahydroxy-10,12-dioxo-5,5a,6,6a,7,10,10a,12-octahydrotetracen-2-yl]amino}-2-oxoethyl)(butyl)amino]carbonyl}oxy)methyl 3,5-dimethylbenzoate]
4 µg/mL: MIC (E. faecalis GC 2267; GC2267, read-out: MINIMAL INHIBITORY CONCENTRATION MIC, pre-incubated in Mouse Serum) | MIC (S. aureus GC 1131; GC1131, read-out: MINIMAL INHIBITORY CONCENTRATION MIC, pre-incubated in Water) | MIC (S. pneumoniae+ GC 4465; [1])
> 64 µg/mL: MIC (E. coli GC 4559; GC4559, read-out: MINIMAL INHIBITORY CONCENTRATION MIC, pre-incubated in Water) | MIC (E. coli GC 2272; GC2272, read-out: MINIMAL INHIBITORY CONCENTRATION MIC, pre-incubated in Water) | MIC (P. aeruginosa GC 2214; GC2214, read-out: MINIMAL INHIBITORY CONCENTRATION MIC, pre-incubated in Mouse Serum) | MIC (P. aeruginosa GC 2214; GC2214, read-out: MINIMAL INHIBITORY CONCENTRATION MIC, pre-incubated in Water) | MIC (E. coli GC 3226; GC3226, read-out: MINIMAL INHIBITORY CONCENTRATION MIC, pre-incubated in Water) | MIC (E. coli GC 2232; GC2232, read-out: MINIMAL INHIBITORY CONCENTRATION MIC, pre-incubated in Water) | MIC (E. coli GC 2234; GC2234, read-out: MINIMAL INHIBITORY CONCENTRATION MIC, pre-incubated in Water) | MIC (E. coli GC 2203; GC2203, read-out: MINIMAL INHIBITORY CONCENTRATION MIC, pre-incubated in Water) | MIC (E. coli GC 2236; GC2236, read-out: MINIMAL INHIBITORY CONCENTRATION MIC, pre-incubated in Water) | MIC (E. coli GC 2271; GC2271, read-out: MINIMAL INHIBITORY CONCENTRATION MIC, pre-incubated in Water)
64 µg/mL: MIC (E. faecalis GC 2267; GC2267, read-out: MINIMAL INHIBITORY CONCENTRATION MIC, pre-incubated in Water) | MIC (E. faecalis GC 2265; GC2265, read-out: MINIMAL INHIBITORY CONCENTRATION MIC, pre-incubated in Water) | MIC (E. faecalis GC 4555; GC4555, read-out: MINIMAL INHIBITORY CONCENTRATION MIC, pre-incubated in Water)
2 µg/mL: MIC (E. coli GC 4559; GC4559, read-out: MINIMAL INHIBITORY CONCENTRATION MIC, pre-incubated in Mouse Serum) | MIC (S. aureus GC 6335; GC6335, read-out: MINIMAL INHIBITORY CONCENTRATION MIC, pre-incubated in Mouse Serum) | MIC (E. coli GC 2232; GC2232, read-out: MINIMAL INHIBITORY CONCENTRATION MIC, pre-incubated in Mouse Serum) | MIC (E. faecalis GC 2265; GC2265, read-out: MINIMAL INHIBITORY CONCENTRATION MIC, pre-incubated in Mouse Serum) | MIC (E. coli GC 2236; GC2236, read-out: MINIMAL INHIBITORY CONCENTRATION MIC, pre-incubated in Mouse Serum) | MIC (E. faecalis GC 4555; GC4555, read-out: MINIMAL INHIBITORY CONCENTRATION MIC, pre-incubated in Mouse Serum) | MIC (S. epidermidis GC 4935; GC4935, read-out: MINIMAL INHIBITORY CONCENTRATION MIC, pre-incubated in Mouse Serum)
16 µg/mL: MIC (S. pneumoniae+ GC 4465; [2]) | MIC (S. epidermidis GC 4935; GC4935, read-out: MINIMAL INHIBITORY CONCENTRATION MIC, pre-incubated in Water)
0.43 mg/kg: ED50 (Staph. aureus Smith; iv, read-out: ED50 Staph Smith SIV)
0.5 µg/mL: MIC (S. pneumoniae* GC 4465; [1]) | MIC (S. pyogenes GC 4563; GC4563, read-out: MINIMAL INHIBITORY CONCENTRATION MIC, pre-incubated in Mouse Serum)
8 µg/mL: MIC (S. agalactiae GC 4564; GC4564, read-out: MINIMAL INHIBITORY CONCENTRATION MIC, pre-incubated in Water) | MIC (E. coli GC 3226; GC3226, read-out: MINIMAL INHIBITORY CONCENTRATION MIC, pre-incubated in Mouse Serum) | MIC (S. aureus GC 6335; GC6335, read-out: MINIMAL INHIBITORY CONCENTRATION MIC, pre-incubated in Water)
1 µg/mL: MIC (S. aureus GC 1131; GC1131, read-out: MINIMAL INHIBITORY CONCENTRATION MIC, pre-incubated in Mouse Serum) | MIC (E. coli GC 2272; GC2272, read-out: MINIMAL INHIBITORY CONCENTRATION MIC, pre-incubated in Mouse Serum) | MIC (S. agalactiae GC 4564; GC4564, read-out: MINIMAL INHIBITORY CONCENTRATION MIC, pre-incubated in Mouse Serum) | MIC (E. coli GC 2234; GC2234, read-out: MINIMAL INHIBITORY CONCENTRATION MIC, pre-incubated in Mouse Serum) | MIC (E. coli GC 2203; GC2203, read-out: MINIMAL INHIBITORY CONCENTRATION MIC, pre-incubated in Mouse Serum) | MIC (E. coli GC 2271; GC2271, read-out: MINIMAL INHIBITORY CONCENTRATION MIC, pre-incubated in Mouse Serum) | MIC (S. pneumoniae* GC 4465; [2]) | MIC (S. pyogenes GC 4563; GC4563, read-out: MINIMAL INHIBITORY CONCENTRATION MIC, pre-incubated in Water)
18.8 mg/kg: ED50 (Staph. aureus Smith; Staphylococcus aureus, in Mus musculus, po, read-out: ED50 Staph Smith SOD)

Source: patent publication US20070049564A1 (Wyeth, priority 2005, published 2007)
